The results in this text go back to PubChem BioAssay (NCI).

Common to all, as to assay: NCI anticancer screen, dose series, 48 h
The subject of experiment [1] is U251 CNS.
Experiment [2] deals with SF-268 CNS.
The test system of experiment [3] is HOP-92 NSCLC.
In experiment [4] the test system is M14 melanoma.
Experiment [5] relates to OVCAR-5 ovarian.
Experiment [6] has as its system SNB-19 CNS.
For experiment [7], the system named is OVCAR-8 ovarian.
Experiment [8] has as its system LOX IMVI melanoma.
Experiment [9] has as its system 786-0 renal.
Experiment [10] concerns HCT-116 colon.

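48-hour exposure; five concentrations; linearly interpolated endpoints. At the GI50, growth is halved. TGI: concentration producing complete growth inhibition.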

Consider `CCCCc1ccc2nc(NC(=O)OC)[nH]c2c1`, for which the GI50 in experiment [1] was 0.0533 µM; in [2] it was 0.0616 µM; in [3] it was 0.697 µM; in experiment [4], 0.0351 µM; in experiment [5] it was 1.4 µM; in experiment [6], 0.0487 µM. Moreover, the GI50 in experiment [7] is 0.0837 µM; in [8] it was 0.0789 µM; in [9] it was 0.0613 µM; in [10], 0.0482 µM. Moreover, the TGI in experiment [1] is 19.4 µM; in experiment [2] it was 16.9 µM; in experiment [3] it was over 63 µM; in [4], 0.69 µM; in experiment [5], over 100 µM; in experiment [6], over 100 µM. The TGI was over 52.9 µM in experiment [7], over 55.9 µM in [8], 29.3 µM in experiment [9] and 13.5 µM in experiment [10].

Regarding `COc1ccc(C(=O)/C=C/c2ccc(Cl)cc2)cc1S(N)(=O)=O`, the GI50 in experiment [1] is 1.96 µM; in experiment [2], 3.13 µM; in experiment [3], 2.14 µM; in experiment [4], 2.13 µM; in [5], 3.08 µM; in experiment [6], 3.1 µM. For the same molecule, the GI50 in [7] was 3.55 µM; in experiment [8], 1.28 µM; in experiment [9], 1.74 µM; in [10], 1.36 µM. Moreover, the TGI in experiment [1] came to 4.27 µM; in experiment [2], 11.9 µM; in experiment [3], 5.78 µM; in [4] it was 5.68 µM; in experiment [5] it was 13.8 µM; in experiment [6], 10.3 µM. For the same molecule, the TGI in experiment [7] is 10.2 µM; in [8], 2.65 µM; in [9], 3.69 µM; in experiment [10], 2.7 µM.

In the case of `CCCOC(=O)C1CCC(=O)N1C(=O)C(Cl)Cl` (centres undefined), the TGI in experiment [1], in [2], in experiment [3], in experiment [4], in experiment [5] and in experiment [6] was over 100 µM each time. Also, the TGI in [7], in [8], in experiment [9] and in experiment [10] was over 100 µM each time.

For `O=C(CC(O)(c1ccccc1)c1ccc(Cl)cc1)NC(=O)c1ccccc1O` (centres undefined), the TGI is 26.5 µM in experiment [1]; over 100 µM in experiment [2]; 6.59 µM in experiment [3]; 27.9 µM in [4]; 8.95 µM in experiment [5]; over 100 µM in experiment [6]. Further, the TGI in experiment [7] came out at 61.3 µM; in experiment [8], 23.3 µM; in experiment [9] it was 44.9 µM; in [10] it was 52.6 µM.

As for `COc1ccc(CN2CCc3c(Cl)nc(N)nc3C2=O)c(OC)c1`, the GI50 in experiment [1] was 14.6 µM; in experiment [2], 13.6 µM; in [3], 14.5 µM; in [4], 13.8 µM; in experiment [5], 21.1 µM; in [6], 15.8 µM. For the same molecule, the GI50 in [7] was 26.9 µM; in [8], 13.2 µM; in [9] it was 23.9 µM; in experiment [10] it was 16.1 µM. Moreover, the TGI in [1] was 27.9 µM; in experiment [2] it was 27.3 µM; in experiment [3], 36 µM; in experiment [4] it was 28.1 µM; in [5] it was 46.7 µM; in experiment [6], 33.3 µM. Also, the TGI in experiment [7] is over 100 µM; in experiment [8], 26.7 µM; in experiment [9], 48.1 µM; in [10], 29.9 µM.

On to `NC(=O)C/C=C/CC(N)=O`, for which the TGI in experiment [1], in experiment [2], in experiment [3], in [4], in experiment [5] and in experiment [6] was over 100 µM in each case. The TGI in experiment [7], in [8], in experiment [9] and in [10] was over 100 µM each time.

For the molecule `CCN1CCC(C(=O)Nc2n[nH]c3nnc(-c4cccc(F)c4F)cc23)CC1`, the GI50 in experiment [1] was 6.17 µM; in experiment [2] it was 9.08 µM; in [3] it was 8.03 µM; in experiment [4], 11.4 µM; in experiment [5], 13.9 µM; in experiment [6] it was 12 µM. Moreover, the GI50 in experiment [7] is 9.46 µM; in [8], 5.59 µM; in experiment [9] it was 6.32 µM; in experiment [10], 7.36 µM. For the same molecule, the TGI in [1] is over 25 µM; in experiment [2] it was over 25 µM; in [3] it was over 23.9 µM; in experiment [4], over 25 µM; in experiment [5] it was over 25 µM; in [6], over 25 µM. Besides, the TGI in experiment [7], in experiment [8], in [9] and in [10] was over 25 µM each time.

With `[N-]=[N+]=Nc1ccc(S(=O)(=O)Oc2cc(OS(=O)(=O)c3ccc(N=[N+]=[N-])cc3)cc(OS(=O)(=O)c3ccc(N=[N+]=[N-])cc3)c2)cc1`, the TGI in experiment [1] is over 100 µM; in experiment [2], over 100 µM; in experiment [3], over 100 µM; in experiment [4], over 100 µM; in [5], over 100 µM; in [6], over 10 µM. Besides, the TGI in experiment [7] was over 10 µM; in experiment [8] it was over 100 µM; in experiment [9] it was over 100 µM; in experiment [10] it was over 100 µM.

Regarding `COc1ccc(NC(=O)CC/C(CC(=O)c2ccco2)=N/Nc2ccc([N+](=O)[O-])cc2[N+](=O)[O-])cc1`, the TGI in experiment [1], in [2], in experiment [3], in experiment [4], in experiment [5] and in experiment [6] was over 100 µM in each case. Moreover, the TGI in experiment [7], in experiment [8], in experiment [9] and in experiment [10] was over 100 µM throughout.

In the case of `O=c1c(Cl)nsnc1Cl`, the TGI in [1] was 35.9 µM; in [2], 71.3 µM; in experiment [3] it was 13 µM; in experiment [4], 12.8 µM; in experiment [5] it was 38.6 µM; in [6], 49.1 µM. Also, the TGI in experiment [7] is over 91.6 µM; in experiment [8], 27.2 µM; in [9] it was 3.32 µM; in [10] it was 20.5 µM.

On to `COc1c(O)c2ccccc2c2cc(O)ccc12`, for which the TGI in [1] was determined as 17.9 µM; in experiment [2], 28.8 µM; in [3], 24.3 µM; in experiment [4], 8.57 µM; in experiment [5], 21.7 µM; in experiment [6] it was 28.2 µM. Also, the TGI in experiment [7] is 15.4 µM; in experiment [8], 7.53 µM; in experiment [9], 25.1 µM; in experiment [10], 13.8 µM.

In the case of `CCN(CC)CCn1c(=N)n(CC(O)c2ccc(Cl)c(Cl)c2)c2ccccc21` (centres undefined), the GI50 was 2.82 µM in [1]; 11.9 µM in experiment [2]; 2.73 µM in experiment [3]; 2.07 µM in [4]; 10.7 µM in experiment [5]; 13.5 µM in experiment [6]. The GI50 was 12.1 µM in experiment [7], 6.14 µM in experiment [8], 10.9 µM in experiment [9] and 4.47 µM in [10]. Also, the TGI in experiment [1] came out at 9.04 µM; in experiment [2] it was 25.3 µM; in experiment [3] it was 13.1 µM; in experiment [4] it was 3.74 µM; in experiment [5] it was 22.8 µM; in [6], 28.8 µM. Moreover, the TGI in [7] is 25.5 µM; in [8] it was 20.3 µM; in experiment [9], 23.1 µM; in [10], 16.4 µM.

`CC(=O)OC1COC(N2C(=O)C(=O)c3c(C)cc(Cl)nc32)C(OC(C)=O)C1OC(C)=O` (centres undefined): the TGI in [1], in experiment [2], in [3], in experiment [4], in [5] and in [6] was over 100 µM each time. Further, the TGI in experiment [7], in experiment [8], in experiment [9] and in [10] was over 100 µM each time.

Regarding `O=C(CCCCCCc1nc2ccc(Br)cc2[nH]1)NO`, the GI50 in experiment [1] is 0.387 µM; in experiment [2] it was 0.67 µM; in experiment [3], 0.241 µM; in experiment [4] it was 0.34 µM; in experiment [5] it was 0.568 µM; in experiment [6], 0.689 µM. Also, the GI50 in experiment [7] is 0.275 µM; in experiment [8], 0.396 µM; in experiment [9] it was 1.03 µM; in [10], 0.202 µM. The TGI in experiment [1] was 4.62 µM; in experiment [2], 3.3 µM; in experiment [3] it was 0.905 µM; in experiment [4] it was 7.51 µM; in experiment [5], 22.3 µM; in experiment [6], over 30 µM. Moreover, the TGI in experiment [7] turned out to be 16 µM; in experiment [8], 1.55 µM; in [9], 10.7 µM; in experiment [10] it was 1.03 µM.

Take `Cc1ccc(CCC(=O)Nc2ncc(Cc3cc(Cl)ccc3Cl)s2)o1`: the GI50 in experiment [1] was 0.202 µM; in experiment [2], 1.59 µM; in experiment [3], 2.33 µM; in experiment [4] it was 0.091 µM; in [5] it was 0.455 µM; in experiment [6], 0.33 µM. The GI50 in experiment [7] is 0.432 µM; in [8], 0.221 µM; in [9], 0.692 µM; in experiment [10] it was 0.0696 µM. Further, the TGI in experiment [1] is 3.39 µM; in experiment [2], over 54.6 µM; in experiment [3], over 45.3 µM; in experiment [4], 3.97 µM; in [5], 14.1 µM; in [6] it was 5.45 µM. In addition, the values for the TGI in experiment [7], in experiment [9] and in [10] were over 26.1 µM, 4.19 µM and 2.14 µM, respectively.

On to `COC1OC(OC)C2C(c3c(C)cc(C)cc3C)=NOC12` (centres undefined), for which the TGI in experiment [1], in [2], in experiment [3], in experiment [4], in experiment [5] and in experiment [6] was over 100 µM throughout. Further, the TGI in [7], in experiment [8], in experiment [9] and in experiment [10] was over 100 µM in each case.

In the case of `COC(=O)C1=Cc2cc3c(cc2[C@H](c2ccc4c(c2)OCO4)C1C(=O)OC)OCO3` (some centres undefined), the TGI in experiment [1], in experiment [2], in [3], in [4], in experiment [5] and in [6] was over 100 µM throughout. Besides, the TGI in [7], in experiment [8], in experiment [9] and in experiment [10] was over 100 µM each time.

Take `O=C1CCC/C=C\C[C@H]2C=C(Cl)C(=O)/C2=C/C[C@H](CCCCC(F)(F)F)OC(=O)CCC/C=C\C[C@H]2C=C(Cl)C(=O)/C2=C/C[C@H](CCCCC(F)(F)F)O1`: the GI50 in experiment [1] is 0.226 µM; in [2] it was 0.241 µM; in experiment [3], 0.199 µM; in experiment [4], 0.192 µM; in experiment [5] it was 0.34 µM; in experiment [6], 0.353 µM. Also, the GI50 in experiment [7] was 0.231 µM; in [8], 0.128 µM; in experiment [9], 0.18 µM; in [10], 0.157 µM. In addition, the TGI in experiment [1] was 0.772 µM; in [2], 1.38 µM; in [3] it was 0.754 µM; in experiment [4] it was 0.614 µM; in experiment [5], 2.08 µM; in [6], 1.67 µM. The TGI in [7] worked out at 1.09 µM; in experiment [8], 0.268 µM; in experiment [9] it was 0.475 µM; in [10], 0.43 µM.

As to `O=C(Cn1ccnc1[N+](=O)[O-])NCCO`, the TGI in experiment [1], in [2], in [3], in experiment [4], in experiment [5] and in [6] was over 100 µM in each case. For the same molecule, the TGI in [7], in [8], in experiment [9] and in [10] was over 100 µM throughout.

For the molecule `COC(=O)C(=O)C(C#N)c1cccc2ccccc12` (centres undefined), the TGI in experiment [1], in [2], in [3], in [4], in experiment [5] and in experiment [6] was over 100 µM each time. For the same molecule, the TGI in experiment [7], in [8], in experiment [9] and in [10] was over 100 µM each time.
